This note sets out measurements from patent US11564923B2, “Compounds and pharmaceutical compositions thereof for the treatment of inflammatory disorders” (Galapagos NV, priority 2017, dated 2023).

Each structure is given as a SMILES string. Where a name gives a salt, the structure may show the parent alone.

Assay [1] concerns the target T1, Recombinant human TYK2 catalytic domain (amino acids 871-1187) (Homo sapiens, UniProt P29597).
T1 construct: catalytic domain (amino acids 871-1187)
T1 sequence (P29597 871-1187): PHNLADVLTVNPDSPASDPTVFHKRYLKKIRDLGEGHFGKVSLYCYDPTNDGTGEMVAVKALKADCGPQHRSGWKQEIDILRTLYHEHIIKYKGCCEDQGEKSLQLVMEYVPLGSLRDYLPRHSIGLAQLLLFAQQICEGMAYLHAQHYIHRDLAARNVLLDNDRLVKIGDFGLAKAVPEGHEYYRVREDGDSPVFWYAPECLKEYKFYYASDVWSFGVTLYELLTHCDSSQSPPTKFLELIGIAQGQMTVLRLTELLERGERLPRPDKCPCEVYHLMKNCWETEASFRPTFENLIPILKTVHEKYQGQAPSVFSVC
Nature of the assay: TYK2 radioactive assay polyGT substrate. Further: 0.1 µM ATP. The class given is biochemical. As to the method: After 120 min at 30° C., reactions were stopped by adding 25 μL/well of 150 mM phosphoric acid. […] Plates were washed 6 times with 300 μL per well of a 75 mM phosphoric acid solution and the bottom of the plates is sealed. […] Kinase activity is calculated by subtracting counts per min (cpm) obtained in the presence of a positive control inhibitor (10 μM staurosporine) from cpm obtained in the presence of vehicle. The ability of a test compound to inhibit this activity (or percentage inhibition) is determined as: […]
cpm test compound=cpm determined for sample with test compound present cpm control=cpm determined for sample with positive control inhibitor cpm vehicle=cpm determined in the presence of vehicle
Dose dilution series were prepared for the compounds enabling the testing of dose-response effects in the TYK2 assay and the calculation of the IC50 for each compound. Each compound is routinely tested at concentration of 20 μM followed by a 1/5 serial dilution, 10 points in a final concentration of 1% DMSO.

The subject of assay [2] is IL-12 activation of STAT4 in NK-92 cells. Description: IL-12 activation of STAT4 in NK-92 cells using AphaLISA SureFire technology. The class given is cell-based. Conditions: Homo sapiens, NK92; IL-12 activation of STAT4 in NK-92 cells, AlphaLISA SureFire; average IC50; read-out: IL12 pSTAT4 IC50. As to the method:
IL-2 is added freshly to the medium with each medium refreshment step. Cells are cultured in a humidified incubator at 37° C. 5% CO2.
A subcultured fraction of NK-92 cells is washed once in culture medium without rhIL-2 the day before the experiment and incubated overnight in a culture flask.
5% CO2. […] NK-92 cells are triggered with rhIL-12 for 30 min at 37° C. 5% CO2.
After 30 min of cytokine stimulation the cells are lysed by addition of 15 μL 5× lysis buffer (supplemented with the AlphaLISA kit). After 10 minutes, plates are frozen at −80° C. overnight and the next day the levels of phospho-STAT4 are quantified using the AlphaLISA SureFire ULTRA p-STAT4 (Tyr693) (Perkin Elmer, Catalogue number ALSU-PST4-A10K) according to the manufacturers instructions. AlphaLISA signal (relative light units) is measured using an Envision (Perkin Elmer).
(§1) The percentage inhibition is calculated as: […]
RLU(trigger/veh): Relative lumescent signal determined in presence of vehicle and trigger
RLU(test compound): Relative luminescent signal determined in presence of test compounds and trigger
PIN values are plotted for compounds tested in dose-response and IC50 values are derived using GraphPad Prism Software applying non-linear regression (sigmoidal) curve fitting. The data are expressed as the average IC50 from different experiments.

For assay [3], the system named is IFNα activation of STAT1 in PBMC. Nature of the assay: IFNα activation of STAT1 in PBMC. In kind it is cell-based. The following applies: Homo sapiens; IFNα activation of STAT1 in PBMC; average IC50; read-out: IFNα signaling inhibitory potency IC50. As to the method: After these 2 wash steps the cell pellet is dissolved in ammonium chloride buffer (1.5 M NH4Cl, 100 mM NaHCO3 and 10 mM Na2.EDTA) for lysis of the red blood cells.
PBMC are treated with test compound for 30 min at 37° C. 5% CO2. […] After 30 min of test compound/vehicle pre-treatment, PBMC are stimulated for 30 min at 37° C. 5% CO2 with recombinant human IFNα (PeproTech, catalog number 300-02A) at a final concentration of 5 ng/mL by addition of 20 μL (10× concentrated) cytokine trigger to obtain a final volume of 200 μL per well.
After 30 min of cytokine stimulation, 200 μL of cell suspension is transferred to a 96-well V-bottom plate, centrifugated for 5 min at 1000 rpm to pellet cells, followed by removal of supernatant.
as §1
RCLU(vehicle control): Relative Chemiluminescent signal determined in presence of vehicle and trigger
RCLU(test compound): Relative Chemiluminescent signal determined in presence of test compounds and trigger
RCLU(positive control): Relative Chemiluminescent signal determined in presence of positive control and trigger
PIN values are plotted for compounds tested in dose-response and average IC50 values are derived using GraphiPad Prism Software applying non-linear regression (sigmoidal) curve fitting.

On to `Cc1cc(C#N)ncc1Oc1cc(Nc2ccc(C(=O)N3CCN(C(C)C)CC3)cn2)c2ncn(C)c2n1` [Compound 46, 4-methyl-5-[3-methyl-7-[[5-(4-propan-2-ylpiperazine-1-carbonyl)pyridin-2-yl]amino]imidazo[4,5-b]pyridin-5-yl]oxypyridine-2-carbonitrile], for which the IC50 in assay [1] was 1.47 nM; in assay [2], 210 nM; in assay [3], 76 nM.

In the case of `Cc1cc(C#N)ncc1Oc1cc(Nc2ccc(C(=O)N3CCN(C4CCC4)CC3)cn2)c2ncn(C)c2n1` [Compound 47, 5-[7-[[5-(4-cyclobutylpiperazine-1-carbonyl)pyridin-2-yl]amino]-3-methylimidazo[4,5-b]pyridin-5-yl]oxy-4-methylpyridine-2-carbonitrile], the figures for the IC50 in assay [1], in assay [2] and in assay [3] were 2.02 nM, 84 nM and 52 nM, respectively.

On to `Cc1cc(C#N)ncc1Oc1cc(Nc2ccc(N3CCN(C)CC3)cn2)c2ncn(C)c2n1` [Compound 50, 4-methyl-5-[3-methyl-7-[[5-(4-methylpiperazin-1-yl)pyridin-2-yl]amino]imidazo[4,5-b]pyridin-5-yl]oxypyridine-2-carbonitrile], for which the IC50 in assay [1] stood at 5.54 nM; in assay [2], 248 nM; in assay [3] it was 95 nM.

Consider `Cc1cc(C#N)ncc1Oc1cc(Nc2ccc(CN3CCOCC3)cn2)c2ncn(C)c2n1` [Compound 82, 4-methyl-5-[3-methyl-7-[[5-(morpholin-4-ylmethyl)pyridin-2-yl]amino]imidazo[4,5-b]pyridin-5-yl]oxypyridine-2-carbonitrile formate salt], for which the IC50 amounted to 8.15 nM in assay [1], 195 nM in assay [2] and 126 nM in assay [3].

On to `Cc1cc(C#N)ncc1Oc1cc(Nc2ccc(OC3CN(C)C3)nn2)c2ncn(C)c2n1` [Compound 90, 4-methyl-5-[3-methyl-7-[[6-(1-methylazetidin-3-yl)oxypyridazin-3-yl]amino]imidazo[4,5-b]pyridin-5-yl]oxypyridine-2-carbonitrile], for which the IC50 came out at 12.4 nM in assay [1], 1520 nM in assay [2] and 288 nM in assay [3].

For the compound `Cc1cc(C#N)ncc1Oc1cc(Nc2ccc(C(=O)N3CC(O)C3)cn2)c2ncn(C)c2n1` [Compound 96, 5-[7-[[5-(3-hydroxyazetidine-1-cabonyl)-2-pyridyl]amino]-3-methyl-imidazo[4,5-b]pyridin-5-yl]oxy-4-methyl-pyridine-2-carbonitrile], the IC50 in assay [1] amounted to 2.51 nM; in assay [2], 358 nM; in assay [3], 73 nM.

Consider `COC1CN(C(=O)c2ccc(Nc3cc(Oc4cnc(C#N)cc4C)nc4c3ncn4C)nc2)C1` [Compound 103, 5-[7-[[5-(3-methoxyazetidine-1-carbonyl)-2-pyridyl]amino]-3-methyl-imidazo[4,5-b]pyridin-5-yl]oxy-4-methyl-pyridine-2-carbonitrile], for which the IC50 stood at 2.73 nM in assay [1], 63.5 nM in assay [2] and 68 nM in assay [3].

For the compound `COCC1CN(C(=O)c2ccc(Nc3cc(Oc4cnc(C#N)cc4C)nc4c3ncn4C)nc2)C1` [Compound 104, 5-[7-[[5-[3-(methoxymethyl)azetidine-1-carbonyl]-2-pyridyl]amino]-3-methyl-imidazo[4,5-b]pyridin-5-yl]oxy-4-methyl-pyridine-2-carbontrile], the values for the half-maximal inhibitory concentration (IC50) in assay [1], in assay [2] and in assay [3] were 2.88 nM, 108 nM and 65 nM, respectively.

As for `Cc1cc(C#N)ncc1Oc1cc(Nc2ccc(C(=O)N3CC[C@@H](N(C)C)C3)cn2)c2ncn(C)c2n1` [Compound 107, 5-[7-[[5-[(3R)-3-(dimethylamino)pyrrolidine-1-carbonyl]pyridin-2-yl]amino]-3-methylimidazo[4,5-b]pyridin-5-yl]oxy-4-methylpyridine-2-carbonitrile], the IC50 in assay [1] came out at 5.44 nM; in assay [2] it was 622 nM; in assay [3], 110 nM.

On to `Cc1cc(C#N)ncc1Oc1cc(Nc2ccc(C(=O)N3CCOCC3)nn2)c2ncn(C)c2n1` [Compound 108, 4-methyl-5-[3-methyl-7-[[6-(morpholine-4-carbonyl)pyridazin-3-yl]amino]imidazo[4,5-b]pyridin-5-yl]oxypyridine-2-carbonitrile], for which the IC50 in assay [1] was found to be 2.63 nM; in assay [2], 94 nM; in assay [3], 52 nM.

Regarding `Cc1cc(C#N)ncc1Oc1cc(Nc2ccc(C(=O)N3CC(CO)C3)cn2)c2ncn(C)c2n1` [Compound 118, 5-[7-[[5-[3-(hydroxymethyl)azetidine-1-carbonyl]-2-pyridyl]amino]-3-methyl-imidazo[4,5-b]pyridin-5-yl]oxy-4-methyl-pyridine-2-carbonitrile], the figures for the IC50 in assay [1], in assay [2] and in assay [3] were 2.81 nM, 299 nM and 110 nM, respectively.

Turning to `Cc1cc(C#N)ncc1Oc1cc(Nc2ccc(C(=O)N3CC(C)(O)C3)cn2)c2ncn(C)c2n1` [Compound 119, 5-[7-[[5-(3-hydroxy-3-methyl-azetidine-1-carbonyl)-2-pyridyl]amino]-3-methyl-imidazo[4,5-b]pyridin-5-yl]oxy-4-methyl-pyridine-2-carbonitrile], the IC50 in assay [1] is 2.56 nM; in assay [2], 261 nM; in assay [3], 81 nM.

Consider `Cc1cc(C#N)ncc1Oc1cc(Nc2ccc(C(=O)N3CC[C@H](N(C)C)C3)cn2)c2ncn(C)c2n1` [Compound 133, 5-[7-[[5-[(3S)-3-(dimethylamino)pyrrolidine-1-carbonyl]pyridin-2-yl]amino]-3-methylimidazo[4,5-b]pyridin-5-yl]oxy-4-methylpyridine-2-carbonitrile], for which the values for the IC50 in assay [1], in assay [2] and in assay [3] were 6.67 nM, 981 nM and 121 nM, respectively.

As for `Cc1cc(C#N)ncc1Oc1cc(Nc2ccc(C(=O)N3CC(OC(C)C)C3)cn2)c2ncn(C)c2n1` [Compound 137, 4-methyl-5-[3-methyl-7-[[5-(3-propan-2-yloxyazetidine-1-carbonyl)pyridin-2-yl]amino]imidazo[4,5-b]pyridin-5-yl]oxypyridine-2-carbonitrile], the values for the IC50 in assay [1], in assay [2] and in assay [3] were 2.32 nM, 89 nM and 62 nM, respectively.

As for `Cc1cc(C#N)ncc1Oc1cc(Nc2ccc(C(=O)N3CCC(C)(O)CC3)cn2)c2ncn(C)c2n1` [Compound 138, 5-[7-[[5-(4-hydroxy-4-methylpiperidine-1-carbonyl)pyridin-2-yl]amino]-3-methylimidazo[4,5-b]pyridin-5-yl]oxy-4-methylpyridine-2-carbonitrile], the IC50 in assay [1] amounted to 1.66 nM; in assay [2] it was 332 nM; in assay [3], 91 nM.

For the compound `Cc1cc(C#N)ncc1Oc1cc(Nc2ccc(C(=O)N3CCO[C@@H](C)C3)cn2)c2ncn(C)c2n1` [Compound 144, 4-methyl-5-[3-methyl-7-[[5-[(2S)-2-methylmorpholine-4-carbonyl]pyridin-2-yl]amino]imidazo[4,5-b]pyridin-5-yl]oxypyridine-2-carbonitrile], the results for the IC50 in assay [1], in assay [2] and in assay [3] were 2.15 nM, 211 nM and 119 nM, respectively.
